Results reported in patent publication US20050112573A1, “Method of detecting toxic substance” (priority 2001, published 2005).

Tested on: yeast genes (level of expressed mRNA)
Experiment: DNA chip analysis of expressed mRNA of yeast genes after 2 h culture with a toxic chemical substance
Format: cell-based, Saccharomyces cerevisiae S288C
Conditions: for The level of expressed mRNA in the presence of chemical substance/ (ratio to absence of chemical substance): stress protein genes, DNA chip
Method in brief: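 S. cerevisiae S288C grown at 25° C in YPD; toxicant added at log phase at growth-inhibitory, non-lethal levels for 2 h, untreated cells as control. Poly(A) mRNA reverse-transcribed with Cy3/Cy5-dUTP, hybridized to whole-genome chip at 65° C >12 h; value is fluorescence ratio versus untreated.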

C=CC=O [(14), acrolein]
The level of expressed mRNA in the presence of chemical substance/ in its absence, gene YDL078C (yeast gene YDL078C, ratio of DNA chip fluorescence intensity to that without chemical substance): 0.8 | The level of expressed mRNA in the presence of chemical substance/ (in its absence), gene YDL215C (yeast gene YDL215C, ratio of DNA chip fluorescence intensity to that without chemical substance): 1.0 | The level of expressed mRNA in the presence of chemical substance/The level of expressed mRNA in the absence of chemical substance (yeast gene YDL238C): 1.2 | The level of expressed mRNA in the presence of chemical substance/The level of expressed mRNA in the absence of chemical substance (yeast gene YDR055W): 0.9 | The level of expressed mRNA in the presence of chemical substance/ (in its absence), gene YDR073W (yeast gene YDR073W, ratio of DNA chip fluorescence intensity to that without chemical substance): 1.2 | The level of expressed mRNA in the presence of chemical substance/ in its absence, gene YDR079W (yeast gene YDR079W, energy system protein genes, 2 h culture with the chemical, ratio to control without chemical): 1.5 | The level of expressed mRNA in the presence of chemical substance/ (ratio to absence), gene YDR079W (yeast gene YDR079W, mitochondria-located protein genes, 2 h culture with chemical): 1.5 | The level of expressed mRNA in the presence of chemical substance/The level of expressed mRNA in the absence of chemical substance (yeast gene YDR084C): 1.0 | The level of expressed mRNA in the presence of chemical substance/The level of expressed mRNA in the absence of chemical substance (yeast gene YDR085C): 1.6 | The level of expressed mRNA in the presence of chemical substance/The level of expressed mRNA in the absence of chemical substance (yeast gene YDR104C): 1.4 | The level of expressed mRNA in the presence of chemical substance/The level of expressed mRNA in the absence of chemical substance (yeast gene YDR115W): 1.5 | The level of expressed mRNA in the presence of chemical substance/The level of expressed mRNA in the absence of chemical substance (yeast gene YDR259C): 1.5 | The level of expressed mRNA in the presence of chemical substance/ (in its absence), gene YDR297W (yeast gene YDR297W, ratio of DNA chip fluorescence intensity to that without chemical substance): 0.9 | The level of expressed mRNA in the presence of chemical substance/The level of expressed mRNA in the absence of chemical substance (yeast gene YDR315C): 1.4 | The level of expressed mRNA in the presence of chemical substance/The level of expressed mRNA in the absence of chemical substance (yeast gene YDR358W): 1.2 | The level of expressed mRNA in the presence of chemical substance/ (ratio to absence), gene YDR377W (yeast gene YDR377W, mitochondria-located protein genes, 2 h culture with chemical): 1.4 | The level of expressed mRNA in the presence of chemical substance/ (in its absence), gene YDR387C (yeast gene YDR387C, ratio of DNA chip fluorescence intensity to that without chemical substance): 0.9 | The level of expressed mRNA in the presence of chemical substance/The level of expressed mRNA in the absence of chemical substance (yeast gene YDR388W): 0.6 | The level of expressed mRNA in the presence of chemical substance/The level of expressed mRNA in the absence of chemical substance (yeast gene YDR432W): 0.5 | The level of expressed mRNA in the presence of chemical substance/The level of expressed mRNA in the absence of chemical substance (yeast gene YDR481C): 0.9 | The level of expressed mRNA in the presence of chemical substance/The level of expressed mRNA in the absence of chemical substance (yeast gene YDR510W): 1.9 | The level of expressed mRNA in the presence of chemical substance/ (ratio to absence of chemical substance) (yeast gene YEL039C): 1.4 | The level of expressed mRNA in the presence of chemical substance/The level of expressed mRNA in the absence of chemical substance (yeast gene YEL042W): 0.6 | The level of expressed mRNA in the presence of chemical substance/The level of expressed mRNA in the absence of chemical substance (yeast gene YEL066W): 1.9 | The level of expressed mRNA in the presence of chemical substance/ (in its absence), gene YER015W (yeast gene YER015W, ratio of DNA chip fluorescence intensity to that without chemical substance): 1.1 | The level of expressed mRNA in the presence of chemical substance/The level of expressed mRNA in the absence of chemical substance (yeast gene YER039C): 1.2 | The level of expressed mRNA in the presence of chemical substance/ (ratio to absence of chemical substance) (yeast gene YER057C): 1.4 | The level of expressed mRNA in the presence of chemical substance/The level of expressed mRNA in the absence of chemical substance (yeast gene YER107C): 1.1 | The level of expressed mRNA in the presence of chemical substance/The level of expressed mRNA in the absence of chemical substance (yeast gene YER130C): 0.8 | The level of expressed mRNA in the presence of chemical substance/The level of expressed mRNA in the absence of chemical substance (yeast gene YFL028C): 1.6 | The level of expressed mRNA in the presence of chemical substance/The level of expressed mRNA in the absence of chemical substance (yeast gene YFL043C): 1.5 | The level of expressed mRNA in the presence of chemical substance/ (in its absence), gene YGL035C (yeast gene YGL035C, ratio of DNA chip fluorescence intensity to that without chemical substance): 1.1 | The level of expressed mRNA in the presence of chemical substance/ (in its absence), gene YGL115W (yeast gene YGL115W, ratio of DNA chip fluorescence intensity to that without chemical substance): 1.2 | The level of expressed mRNA in the presence of chemical substance/ (ratio to absence of chemical substance) (yeast gene YGL115W): 1.2 | The level of expressed mRNA in the presence of chemical substance/The level of expressed mRNA in the absence of chemical substance (yeast gene YGL158W): 2.3 | The level of expressed mRNA in the presence of chemical substance/ (ratio to absence), gene YGL187C (yeast gene YGL187C, mitochondria-located protein genes, 2 h culture with chemical): 0.9 | The level of expressed mRNA in the presence of chemical substance/ (in its absence), gene YGL205W (yeast gene YGL205W, ratio of DNA chip fluorescence intensity to that without chemical substance): 1.0 | The level of expressed mRNA in the presence of chemical substance/The level of expressed mRNA in the absence of chemical substance (yeast gene YGL229C): 1.0 | The level of expressed mRNA in the presence of chemical substance/ in its absence, gene YGR062C (yeast gene YGR062C, energy system protein genes, 2 h culture with the chemical, ratio to control without chemical): 1.2 | The level of expressed mRNA in the presence of chemical substance/ (ratio to absence), gene YGR062C (yeast gene YGR062C, mitochondria-located protein genes, 2 h culture with chemical): 1.2 | The level of expressed mRNA in the presence of chemical substance/ (in its absence), gene YGR096W (yeast gene YGR096W, ratio of DNA chip fluorescence intensity to that without chemical substance): 1.2 | The level of expressed mRNA in the presence of chemical substance/The level of expressed mRNA in the absence of chemical substance (yeast gene YGR136W): 1.1 | The level of expressed mRNA in the presence of chemical substance/The level of expressed mRNA in the absence of chemical substance (yeast gene YGR189C): 0.9 | The level of expressed mRNA in the presence of chemical substance/The level of expressed mRNA in the absence of chemical substance (yeast gene YGR213C): 1.0 | The level of expressed mRNA in the presence of chemical substance/The level of expressed mRNA in the absence of chemical substance (yeast gene YGR257C): 0.9 | The level of expressed mRNA in the presence of chemical substance/ (in its absence), gene YGR287C (yeast gene YGR287C, ratio of DNA chip fluorescence intensity to that without chemical substance): 1.1 | The level of expressed mRNA in the presence of chemical substance/ (in its absence), gene YGR288W (yeast gene YGR288W, ratio of DNA chip fluorescence intensity to that without chemical substance): 1.1 | The level of expressed mRNA in the presence of chemical substance/ (ratio to absence of chemical substance) (yeast gene YHL028W): 1.3 | The level of expressed mRNA in the presence of chemical substance/ (ratio to absence of chemical substance) (yeast gene YHL046C): 1.4 | The level of expressed mRNA in the presence of chemical substance/The level of expressed mRNA in the absence of chemical substance (yeast gene YHR004C): 0.8 | The level of expressed mRNA in the presence of chemical substance/The level of expressed mRNA in the absence of chemical substance (yeast gene YHR071W): 1.6 | The level of expressed mRNA in the presence of chemical substance/The level of expressed mRNA in the absence of chemical substance (yeast gene YHR139C): 2.5 | The level of expressed mRNA in the presence of chemical substance/The level of expressed mRNA in the absence of chemical substance (yeast gene YHR142W): 1.2 | The level of expressed mRNA in the presence of chemical substance/ (in its absence), gene YHR210C (yeast gene YHR210C, ratio of DNA chip fluorescence intensity to that without chemical substance): 1.0 | The level of expressed mRNA in the presence of chemical substance/ (in its absence), gene YIL006W (yeast gene YIL006W, ratio of DNA chip fluorescence intensity to that without chemical substance): 1.0 | The level of expressed mRNA in the presence of chemical substance/ (ratio to absence of chemical substance) (yeast gene YIL011W): 0.5 | The level of expressed mRNA in the presence of chemical substance/The level of expressed mRNA in the absence of chemical substance (yeast gene YIL123W): 0.3
